# Assays:
# Assay in all cases: CDKi biochemical assay (TR-FRET, phosphorylation of S780 on RB1 peptide)
# CDK2/CyclinE1 = CDK2/CyclinE1 (Homo sapiens, UniProt P24941); details: CDK2/CyclinE1 100 pM, 1 mM ATP, 60 min at 25° C.
# Method: (§1) Biochemical assays measured the inhibitory effects of compounds in this disclosure on the enzymatic activity of CDK enzyme in complex with Cyclin protein partner by phosphorylation of Ser-780 (S780) on retinoblastoma protein peptide (RB1) in the presence of 1 mM adenosime-5-triphosphate (ATP) and varying concentration of test compound in 20 mM 2-[4-(2-hydroxyethyl)paperazin-1-yl] ethanesulfonic acid (HEPES), pH 7.5, 10 mM MgCl2, 1 mM dithiothreitol (DTT), 0.01% bovine serum albumin (BSA), 0.005% Tween 20. Total Reaction volume of 10 μL proceeded for 60 minutes at room temperature (25° C.) and were quenched with 5 μL of 200 mM 2′,2″,2′″-(Ethane-1,2-diyldinitrilo)tetraacetic acid (EDTA) pH 8.0 before addition of 5 μL detection solution containing 100 nM fluorophore conjugate streptavidin allophycocyanin (SA-APC), 2 nM Europium labelled Anti-p-RB(S780)-K (Perkin Elmer, 64CUSKAY), 50 mM HEPES, pH 7.5, 400 mM potassium fluoride (KF), 0.1% BSA, and 0.01% Tween-20. Phosphorylation of S780 on RB1 peptide (His-MBP-RB1[773-924]-SEQ ID NO. 9) was detected by TR-FRET after 3 hour incubation with detection solution. Percent phosphorylation activity was plotted against log concentration of compound to generate an apparent ICSO. The following CDK enzyme in complex with different cyclin proteins and protein peptide substrate were used in these assays: • CDK1/CyclinB1, Avi-tag, 10 pM used in the assay • CDK2/CyclinE1, Avi-tag, 100 pM used in the assay • CDK4/cyclinD1, Avi-tag, 20 pM used in the assay • CDK6/cyclinD3, Avi-tag, 10 pM used in the assay • His-MBP-RB1[773-924], Avi-tag, 200 nM used in the assay
# (§2) The avi-tag is a C-terminal fusion on the CDK1/2/4/6 sequence in each of these two-protein complexes. The known avi-tag sequence, […] (SEQ ID NO. 10), is a substrate for E. coli biotin ligase BirA, which covalently attaches a biotin molecule to the e-amino group of the lysine in that sequence. The avi-tag is attached with an 8 amino-acid linker sequence GGSGGGGS (SEQ ID NO. 11), resulting in the full C-terminal fusion
# (§3) Recombinant proteins were generated as N-terminal fusions of 9× His tag—E. coli Maltose Binding Protein (MBP), with or without a C-terminal Avi-tag.^1 CDK2 and His-MBP-RB1[773-924]-c-avi were expressed in E. coli while the remainder were expressed in Sf21 insect cells. Genes were synthesized commercially (GeneArt and Twist Bioscience) using codon frequencies appropriate to the respective organisms and proprietary codon optimization strategies, and inserted into pET 24 (E. coli) or pDEST8 (insect) vectors already containing the 9× His-MBP tag using standard methods of PCR and Gibson Assembly.^2 E. coli expression was performed by auto-induction overnight at 18 or 21 C. For insect cell expression, bacmids and viruses were created,^3 then used to synchronously infect Sf21 insect cells with harvest at 40-48 hrs., per standard protocols.^4
# (§4) For CDK2/Cyclin E and CDK1/Cyclin B, the CDK and Cyclin proteins were expressed separately, lysed by sonication and clarified by centrifugation. The fusion proteins were each separately purified by immobilized metal ion affinity chromatography (IMAC) (5 mL HisTrap, Cytiva) and Superdex 200 26/60 (Cytiva) size-exclusion and complexed in vitro (1-3 hrs incubation at room temperature) prior to tag cleavage by recombinant his-tagged Tobacco Etch Virus protease or his-tagged Human rhinovirus 3C protease, as appropriate. The cleaved complex is further purified by Superdex 75 26/60 (Cytiva) size-exclusion followed by reverse-IMAC, in which the complex is in the column flow-through and residual His-MBP and his-tagged proteases are retained. The final complex is concentrated as desired by centrifugal concentration (Amicon Ultra 10,000 Da MWCO 15 mL concentrators, Millipore).
# For E. coli expressed CDK2 and His-MBP-RB1[773-924]-c-avi, the proteins were biotinylated in vitro after the first IMAC step.^1
# (§5) For the is-MBP-RB1[773-924]-c-avi, the protein was lysed by sonication and clarified by centrifugation. […]
# CDK1/CyclinB1 = CDK1/CyclinB1 (Homo sapiens, UniProt P06493); details: CDK1/CyclinB1 10 pM, 1 mM ATP, 60 min at 25° C.
# Method: as §1, §2, §3, §4, §5
# CDK4/cyclinD1 = CDK4/cyclinD1 (Homo sapiens, UniProt P11802); details: CDK4/cyclinD1 20 pM, 1 mM ATP, 60 min at 25° C.
# Method: as §1, §2, §3
# (§6) For CDK4/Cyclin D1 and CDK6/Cyclin D3, the complexes were expressed by simultaneous co-infection of insect cells by three separate viruses including one expressing untagged E. coli BirA. The expression media is supplemented with 50 uM d-biotin. The resulting protein complexes purified similarly. After lysis and clarification, the complex is purified by IMAC, Superdex 200 26/60 size exclusion, tag cleavage by human rhinovirus 3C protease, Superdex 75 26/60 size exclusion and reverse IMAC. BirA is typically not retained on the first IMAC, and excess CDK or Cyclin monomer is separated on the Superdex 200 size exclusion. Cleaved His-MBP and remaining monomer are removed by the Superdex 75 size exclusion and the reverse IMAC step. Final concentration by centrifugal concentrators as described above.
# as §5
# CDK6/cyclinD3 = CDK6/cyclinD3 (Homo sapiens, UniProt Q00534); details: CDK6/cyclinD3 10 pM, 1 mM ATP, 60 min at 25° C.
# Method: as §1, §2, §3, §6, §5
Structure (SMILES),IC50 (CDK2/CyclinE1),IC50 (CDK1/CyclinB1),IC50 (CDK4/cyclinD1),IC50 (CDK6/cyclinD3)
"O=C1N([C@@H]2CCCC[C@@H](O)C2)c2nc(Nc3c[nH]nc3Cl)ncc2C12CC2 [Example 19, 2′-((3-chloro-1H-pyrazol-4-yl)amino)-7′-((1R,3R)-3-hydroxycycloheptyl)spiro[cyclopropane-1,5′-pyrrolo[2,3-d]pyrimidin]-6′(7′H)-one]",44 nM,4120 nM,7580 nM,9160 nM
"O=C1N([C@@H]2CCC[C@@H](O)C2)c2nc(Nc3c[nH]nc3O[C@@H]3COC[C@@H]3F)ncc2C12CC2 [Example 26, 2′-((3-(((3R,4S)-4-fluorotetrahydrofuran-3-yl)oxy)-1H-pyrazol-4-yl)amino)-7′-((1R,3R)-3-hydroxycyclohexyl)spiro[cyclopropane-1,5′-pyrrolo[2,3-d]pyrimidin]-6′(7′H)-one]",59 nM,≥ 10000 nM,5350 nM,8500 nM
"Cc1n[nH]cc1Nc1ncc2c(n1)N([C@@H]1CCCC[C@@H](O)C1)C(=O)C21CC1 [Example 17, 7′-(3-hydroxycycloheptyl)-2′-((3-methyl-1H-pyrazol-4-yl)amino)spiro[cyclopropane-1,5′-pyrrolo[2,3-d]pyrimidin]-6′(7′H)-one]",41 nM,4490 nM,≥ 10000 nM,≥ 10000 nM
"Cn1cc(Nc2ncc3c(n2)N([C@@H]2CCC[C@@H](O)C2)C(=O)C32CC2)cn1 [Example 1, 7′-((1R,3R)-3-hydroxycyclohexyl)-2′-((1-methyl-1H-pyrazol-4-yl)amino)spiro[cyclopropane-1,5′-pyrrolo[2,3-d]pyrimidin]-6′(7′H)-one]",38 nM,1540 nM,400 nM,600 nM
"O=C1N([C@@H]2CCC[C@@H](O)C2)c2nc(Nc3c[nH]nc3OC[C@H]3COCCO3)ncc2C12CC2 [Example 66, 2′-((3-(((R)-1,4-dioxan-2-yl)methoxy)-1H-pyrazol-4-yl)amino)-7′-((1R,3R)-3-hydroxycyclohexyl)spiro[cyclopropane-1,5′-pyrrolo[2,3-d]pyrimidin]-6′(7′H)-one]",51 nM,4220 nM,≥ 10000 nM,≥ 10000 nM
"O=C1N([C@@H]2CCC[C@@H](O)C2)c2nc(Nc3c[nH]nc3-c3cnn4c3CCC4)ncc2C12CC2 [Example 47, 2′-((3-(5,6-dihydro-4H-pyrrolo[1,2-b]pyrazol-3-yl)-1H-pyrazol-4-yl)amino)-7′-((1R,3R)-3-hydroxycyclohexyl)spiro[cyclopropane-1,5′-pyrrolo[2,3-d]pyrimidin]-6′(7′H)-one]",27 nM,≥ 10000 nM,6380 nM,7550 nM
"CSc1n[nH]cc1Nc1ncc2c(n1)N([C@@H]1CCC[C@@H](O)C1)C(=O)C21CC1 [Example 52, 7′-((1R,3R)-3-hydroxycyclohexyl)-2′-((3-(methylthio)-1H-pyrazol-4-yl)amino)spiro[cyclopropane-1,5′-pyrrolo[2,3-d]pyrimidin]-6′(7′H)-one]",31 nM,5320 nM,,≥ 10000 nM
"O=C1N([C@@H]2CCC[C@@H](O)C2)c2nc(Nc3c[nH]nc3CO)ncc2C12CC2 [Example 6, 7′-((1R,3R)-3-hydroxycyclohexyl)-2′-((3-(hydroxymethyl)-1H-pyrazol-4-yl)amino)spiro[cyclopropane-1,5′-pyrrolo[2,3-d]pyrimidin]-6′(7′H)-one]",32 nM,2940 nM,840 nM,2180 nM
"O=C1N([C@@H]2CCC[C@@H](O)C2)c2nc(Nc3c[nH]nc3OC[C@@H]3CCOC3)ncc2C12CC2 [Example 71, 7′-((1R,3R)-3-hydroxycyclohexyl)-2′-((3-(((R)-tetrahydrofuran-3-yl)methoxy)-1H-pyrazol-4-yl)amino)spiro[cyclopropane-1,5′-pyrrolo[2,3-d]pyrimidin]-6′(7′H)-one]",44 nM,7590 nM,≥ 10000 nM,≥ 10000 nM
COc1n[nH]cc1Nc1ncc2c(n1)N([C@@H]1CCCC[C@@H](O)C1)C(=O)C21CC1 [Example 18],114 nM,≥ 10000 nM,≥ 10000 nM,

# Compounds with a lower IC50 (CDK2/CyclinE1), results first:
IC50 (CDK2/CyclinE1),IC50 (CDK1/CyclinB1),IC50 (CDK4/cyclinD1),IC50 (CDK6/cyclinD3),Structure (SMILES)
22 nM,3250 nM,1540 nM,≥ 10000 nM,"O=C1N([C@@H]2CCC[C@@H](O)C2)c2nc(Nc3c[nH]nc3OCC3(F)COC3)ncc2C12CC2 [Example 48, 2′-((3-((3-fluorooxetan-3-yl)methoxy)-1H-pyrazol-4-yl)amino)-7′-((1R,3R)-3-hydroxycyclohexyl)spiro[cyclopropane-1,5′-pyrrolo[2,3-d]pyrimidin]-6′(7′H)-one]"
16 nM,3540 nM,9500 nM,≥ 10000 nM,"CC#Cc1n[nH]cc1Nc1ncc2c(n1)N([C@@H]1CCC[C@@H](O)C1)C(=O)C21CC1 [Example 58, 7′-((1R,3R)-3-hydroxycyclohexyl)-2′-((3-(prop-1-yn-1-yl)-1H-pyrazol-4-yl)amino)spiro[cyclopropane-1,5′-pyrrolo[2,3-d]pyrimidin]-6′(7′H)-one]"
15 nM,1810 nM,4410 nM,7130 nM,"COCC(F)(F)COc1n[nH]cc1Nc1ncc2c(n1)N([C@@H]1CCC[C@@H](O)C1)C(=O)C21CC1 [Example 44, 2′-((3-(2,2-difluoro-3-methoxypropoxy)-1H-pyrazol-4-yl)amino)-7′-((1R,3R)-3-hydroxycyclohexyl)spiro[cyclopropane-1,5′-pyrrolo[2,3-d]pyrimidin]-6′(7′H)-one]"
7 nM,820 nM,2740 nM,3760 nM,"O=C1N([C@@H]2CCC[C@@H](O)C2)c2nc(Nc3c[nH]nc3C(F)F)ncc2C12CC2 [Example 3, 2′-((3-(difluoromethyl)-1H-pyrazol-4-yl)amino)-7′-((1R,3R)-3-hydroxycyclohexyl)spiro[cyclopropane-1,5′-pyrrolo[2,3-d]pyrimidin]-6′(7′H)-one]"
6 nM,800 nM,2610 nM,6030 nM,O=C1N([C@@H]2CCC[C@@H](O)C2)c2nc(Nc3c[nH]nc3O[C@H]3CC3(F)F)ncc2C12CC2 [Example 69]
